Results taken from patent publication US4584291A, “9-deoxy-9-tetrazolyl-derivatives of clavulanic acid, their preparation and their use” (Beecham Group p.l.c., priority 1980, dated 1986).
Values after ≈ are worked out from the molar mass of the structure shown.

What was measured:
E.coli JT39 = experiment: standard MIC test, antibacterial activity of compound alone; format: cell-based, Escherichia coli; conditions: for MIC: Escherichia coli
From the text: (§1) In a standard MIC test the following antibacterial activities were obtained.

St. Aureus Russell [1] = experiment: as above; format: cell-based, Staphylococcus aureus; conditions: for MIC: Staphylococcus aureus
From the text: as §1

K. aerogenes E70 [2] = experiment: as above; format: cell-based, Klebsiella aerogenes; conditions: for MIC: Klebsiella aerogenes
From the text: as §1

St. Aureus Russell [3] = experiment: standard MIC test, synergy of tetrazolyl derivatives with amoxycillin; format: cell-based, Staphylococcus aureus
E. coli JT39 = experiment: as above; format: cell-based, Escherichia coli
From the text: In a standard MIC test the following data were obtained for the synergistic activity of tetrazolyl derivatives with amoxycillin.

K. aerogenes E70 [4] = experiment: as above; format: cell-based, Klebsiella aerogenes
[5] = amoxycillin plus compound at 1.0 μg/ml
[6] = amoxycillin plus compound at 5.0 μg/ml

Compound	MIC (E.coli JT39) [µg/mL]	MIC (St. Aureus Russell [1]) [µg/mL]	MIC (K. aerogenes E70 [2]) [µg/mL]	MIC amoxycillin (St. Aureus Russell [3]; [5]) [µg/mL]	MIC amoxycillin (St. Aureus Russell [3]; [6]) [µg/mL]	MIC amoxycillin (E. coli JT39; [5]) [µg/mL]	MIC (antibacterial activity) (E.coli JT39) [µg/mL]	MIC (antibacterial activity) (St. Aureus Russell [1]) [µg/mL]	MIC amoxycillin (K. aerogenes E70 [4]; [5]) [µg/mL]	MIC amoxycillin (K. aerogenes E70 [4]; [6]) [µg/mL]	MIC (antibacterial activity) (K. aerogenes E70 [2]) [µg/mL]	other results
O=C(O)C1C(=CCn2ncnn2)OC2CC(=O)N21 (centres unmarked) [Example 7, Lithium 9-tetrazol-2-yldoexyclavulanate]	16 (≈ 63.7 µM)	16 (≈ 63.7 µM)	16 (≈ 63.7 µM)	–	–	–	–	–	–	–	–	–
Nc1nnnn1CC=C1OC2CC(=O)N2C1C(=O)[O-].[Li+] (centres unmarked) [Example 10, Lithium 9-(5-aminotetrazolyl)deoxyclavulanate]	–	–	–	0.3	0.04	4.0	8	8	3.1	0.4	31.2	–
CCOC(=O)c1nnnn1CC=C1OC2CC(=O)N2C1C(=O)O (centres unmarked) [Example 14, Lithium 9-(5-ethoxycarbonyltetrazol-1-yl)deoxyclavulanate]	8 (≈ 24.7 µM)	8 (≈ 24.7 µM)	31.2 (≈ 96.5 µM)	–	–	–	–	–	–	–	–	–
O=C(O)c1nnnn1CC=C1OC2CC(=O)N2C1C(=O)O (centres unmarked) [Example 15, Disodium 9-(5-carboxylatotetrazol-1-yl)deoxyclavulanate]	16	16	31.2	–	–	–	–	–	–	–	–	–
O=C(O)C1C(=CCn2cnnn2)OC2CC(=O)N21 (centres unmarked) [Example 18, Lithium 9-(tetrazol-1-yl)deoxyclavulanate]	16 (≈ 63.7 µM)	16 (≈ 63.7 µM)	62.5 (≈ 249 µM)	–	–	–	–	–	–	–	–	–
Cc1nnnn1CC=C1OC2CC(=O)N2C1C(=O)O (centres unmarked) [Example 25, Potassium 9-(5'-methyltetrazol-1'-yl)-9-deoxyclavulanate]	8	16	62.5	–	–	–	–	–	–	–	–	–
O=C(O)C1C(=CCn2nnnc2-c2ccccc2)OC2CC(=O)N21 (centres unmarked) [Example 27, Potassium 9-(5'-phenyltetrazol-1'-yl)-9-deoxyclavulanate]	125	4	> 500	–	–	–	–	–	–	–	–	–
O=CNc1nnnn1CC=C1OC2CC(=O)N2C1C(=O)[O-].[Li+] (centres unmarked) [Example 35, Lithium 9-(5-formamidotetrazolyl)deoxyclavulanate]	–	–	–	0.6	0.16	8.0	31.2	16	6.2	1.6	62.5	MIC amoxycillin (E. coli JT39; [6]): 4.0 µg/mL
CC1(C)S[C@@H]2[C@H](NC(=O)[C@H](N)c3ccc(O)cc3)C(=O)N2[C@H]1C(=O)O [amoxycillin, reference compound]	–	–	–	–	–	–	–	–	–	–	–	MIC amoxycillin (St. Aureus Russell [3]; amoxycillin alone): 500 µg/mL; MIC amoxycillin (E. coli JT39; amoxycillin alone): 2000 µg/mL; MIC amoxycillin (K. aerogenes E70 [4]; amoxycillin alone): 1000 µg/mL
Sodium 9-(5-acetamidotetrazolyl)deoxyclavulanate [Example 12]	–	–	–	0.3	0.08	4.0	16	16	3.1	1.5	31.2	MIC amoxycillin (E. coli JT39; [6]): ≤ 0.5 µg/mL
